For 5 molecules, LC retention time results are on record in the RepoRT retention time repository (doi:10.1016/j.foodchem.2021.129757).

Common to all, as to settings: stereoisomer not certain
Data set [1] can be described thus: RP, Agilent ZORBAX Eclipse XDB-C18, 100 × 2.1 mm, 1.8 µm, 50 °C, 0.4 mL/min, estimated dead time 0.55 min; A: water + 0.1% formic acid, pH 3; B: methanol + 0.1% formic acid, pH 3; gradient (min/%B) 0/2 10/100 14.5/100 14.51/2 16.5/2.
A short description of data set [2]: Other, Phenomenex Kinetex PFP, 100 × 4.6 mm, 5 µm, 45 °C, 0.6 mL/min, estimated dead time 1.8 min; A: water + 0.1% trifluoroacetic acid, pH 2; B: methanol; gradient (min/%B) 0/40 20/72 21/40.
Data set [3] can be described thus: RP, Waters ACQUITY UPLC BEH Shield RP18, 100 × 2.1 mm, 1.7 µm, 30 °C, 0.6 mL/min, estimated dead time 0.37 min; A: water + 0.1% formic acid, pH 3; B: acetonitrile + 0.1% formic acid, pH 3; gradient (min/%B) 0/0 2/0 7/10 22/95 22.1/0 26/0.
The nature of data set [4]: RP, Waters ACQUITY UPLC HSS T3, 100 × 2.1 mm, 1.8 µm, 30 °C, 0.4 mL/min, estimated dead time 0.55 min; A: water + 0.1% formic acid, pH 3; B: acetonitrile + 0.1% formic acid, pH 3; gradient (min/%B) 0/0 2/0 15/100 22/100 22.1/0 26/0.
Data set [5] is described as follows: RP, Phenomenex Luna C18, 150 × 4.6 mm, 3 µm, 25 °C, 0.5 mL/min, estimated dead time 3.2 min; A: water + 0.1% formic acid, pH 3; B: acetonitrile + 0.1% formic acid, pH 3; gradient (min/%B) 0/0 30/30 35/40 50/80 52/80 60/0 65/0.
Data set [6] is described as follows: RP, 150 × 2.1 mm, 2.6 µm, 40 °C, 0.35 mL/min, estimated dead time 0.94 min; A: water + 0.1% formic acid, pH 3; B: acetonitrile + 0.1% formic acid, pH 3; gradient (min/%B) 0/0 1/0 12.5/100 14/100 14.2/0 15/0.
The nature of data set [7]: RP, Agilent InfinityLab Poroshell 120 EC-C18, 100 × 3 mm, 2.7 µm, 25 °C, 0.4 mL/min, estimated dead time 1.1 min; A: water + 0.1% formic acid, pH 3; B: acetonitrile + 0.1% formic acid, pH 3; gradient (min/%B) 0/5 10/25 20/40 24/90 25/90 26/5 30/5.
Data set [8] is described as follows: RP, Phenomenex Synergi Hydro-RP, 150 × 2 mm, 4 µm, 30 °C, 0.5 mL/min, estimated dead time 0.6 min; A: water + 0.1% formic acid, pH 3; B: acetonitrile + 0.1% formic acid, pH 3; gradient (min/%B) 0/5 1/5 35/45 40/100 45/100.
Data set [9] can be described thus: RP, 50 × 0.5 mm, 2.7 µm, 35 °C, 0.01 mL/min, estimated dead time 0.62 min; A: water + 0.1% formic acid, pH 3; B: acetonitrile + 0.1% formic acid, pH 3; gradient (min/%B) 0/5 12/95 14/95 16/5.
A short description of data set [10]: RP, Waters ACQUITY UPLC BEH Shield RP18, 150 × 2.1 mm, 1.7 µm, 40 °C, 0.4 mL/min, estimated dead time 0.83 min; A: water + 0.1% formic acid, pH 3; B: acetonitrile + 0.1% formic acid, pH 3; gradient (min/%B) 0/0 30/50 31/100 37/100 37.1/0.
The nature of data set [11]: RP, Phenomenex Luna Omega Polar C18, 100 × 2.1 mm, 1.6 µm, 40 °C, 0.5 mL/min, estimated dead time 0.44 min; A: water + 0.1% formic acid + 10 mM ammonium formate; B: acetonitrile; gradient (min/%B) 0/5 8/20 10/100 12/100 12.1/5 14/5.
A short description of data set [12]: RP, Phenomenex Luna Omega Polar C18, 100 × 2.1 mm, 1.6 µm, 40 °C, 0.5 mL/min, estimated dead time 0.44 min; A: water + 0.5% formic acid; B: acetonitrile + 0.5% formic acid; gradient (min/%B) 0/5 3/50 3.1/100 5/100 5.1/5 7/5.
Data set [13] can be described thus: RP, Waters ACQUITY UPLC BEH C18, 100 × 2.1 mm, 1.7 µm, 65 °C, 0.4 mL/min, estimated dead time 0.55 min; A: water + 0.1% formic acid, pH 3; B: 80% acetonitrile + 20% acetone + 0.1% formic acid, pH 3; gradient (min/%B) 0/0 5/100 5.5/0 6/0.
A short description of data set [14]: RP, 150 × 2.1 mm, 2.6 µm, 40 °C, 0.35 mL/min, estimated dead time 0.94 min; A: water + 0.1% formic acid, pH 3; B: acetonitrile + 0.1% formic acid, pH 3; gradient (min/%B) 0/0 1/5 7/45 8.5/80 10.5/80 11/5 12/5.
Data set [15] in a line: RP, 100 × 0.5 mm, 2.7 µm, 45 °C, 0.015 mL/min, estimated dead time 0.83 min; A: water + 0.9% formic acid; B: acetonitrile + 0.9% formic acid; gradient (min/%B) 0/1 0.5/1 4/95 4.5/1 5/1.
A short description of data set [16]: RP, Waters Atlantis T3, 100 × 2.1 mm, 3 µm, 40 °C, 0.3 mL/min, estimated dead time 0.73 min; A: water + 0.1% trifluoroacetic acid, pH 2; B: acetonitrile + 0.1% trifluoroacetic acid, pH 2; gradient (min/%B) 0/10 1/10 6/40 7/50 8/50 14/70 16/80 20/10 25/10.
A short description of data set [17]: RP, Agilent ZORBAX RRHD Eclipse Plus C18, 50 × 2.1 mm, 1.8 µm, 30 °C, 0.4 mL/min, estimated dead time 0.28 min; A: water + 0.1% formic acid, pH 3; B: acetonitrile + 0.1% formic acid, pH 3; gradient (min/%B) 0/1 5/10 8/25 9.1/99 10/99 12/99.
Data set [18] in a line: RP, Agilent ZORBAX RRHD Eclipse Plus C18, 50 × 2.1 mm, 1.8 µm, 30 °C, 0.4 mL/min, estimated dead time 0.28 min; A: water + 0.1% formic acid, pH 3; B: acetonitrile + 0.1% formic acid, pH 3; gradient (min/%B) 0/1 5/10 8/25 9.1/99 10/99 12/1.
Data set [19] in a line: RP, Phenomenex Kinetex EVO C18, 100 × 2.1 mm, 2.6 µm, 40 °C, 0.4 mL/min, estimated dead time 0.55 min; A: water + 0.2% formic acid; B: acetonitrile + 0.2% formic acid; gradient (min/%B) 0/5 0.5/5 7/95 8/95 8.5/5 12/5.
Data set [20] can be described thus: RP, Waters ACQUITY UPLC HSS T3, 100 × 2.1 mm, 50 °C; A: water + 0.1% formic acid, pH 3; B: 30% methanol + 70% acetonitrile + 0.1% formic acid, pH 3; gradient (min/%B) 0/5 1/8 2/15 3/40 4/70 4.5/100 5/100 6.4/100 6.6/5 6.8/5 7/5.
Data set [21] in a line: RP, Merck LiChrospher RP-18, 250 × 4 mm, 5 µm, 35 °C, 0.3 mL/min, estimated dead time 6.7 min; A: water + 0.5% formic acid; B: acetonitrile + 0.5% formic acid; gradient (min/%B) 0/5 10/5 30/15 45/20 65/20 95/54 110/63 115/5 135/5.

For the molecule `O=c1c(-c2ccc(O)cc2)coc2cc(O)cc(O)c12` [Genistein], the LC retention time was 6.56 min in data set [1]; 18 min in [2]; 16.1 min in data set [3]; 11.5 min in [4]; 41.5 min in data set [5]; 7.65 min in [6]. Besides, the LC retention time in [7] was 16.5 min; in [8], 25.7 min; in [9], 6.06 min; in [10], 22.9 min; in [11], 9.62 min; in data set [12], 3.49 min. The LC retention time was 2.84 min in [13], 8.03 min in data set [14] and 3.17 min in data set [15].
With `CC1OC(OC2C(Oc3cc(O)c4c(c3)OC(c3ccc(O)cc3)CC4=O)OC(CO)C(O)C2O)C(O)C(O)C1O` (centres undefined) [Naringin], the LC retention time was 5.22 min in [1]; 9.02 min in data set [2]; 13 min in [3]; 7.79 min in data set [16]; 9.46 min in data set [4]; 26.7 min in data set [5]. Moreover, the LC retention time in [7] was 10.6 min; in [8], 17.3 min; in [9], 4.65 min; in data set [10], 13 min; in data set [11] it was 8.96 min; in data set [15], 2.56 min.
With `O=c1c(OS(=O)(=O)O)c(-c2ccc(O)c(O)c2)oc2cc(O)cc(O)c12` [Quercetin 3-O-sulfate], the LC retention time in data set [1] was 5.84 min; in [17], 8.12 min; in data set [18] it was 7.73 min; in [2], 14.7 min; in data set [3] it was 19.4 min; in data set [4], 10.5 min. Besides, the LC retention time is 46.2 min in data set [5]; 6.76 min in data set [19]; 12.6 min in data set [7]; 20.2 min in [8]; 25.5 min in data set [10]; 9.25 min in data set [11]. Moreover, the figures for the LC retention time in [12] and in data set [15] were 2.93 min and 2.82 min, respectively.
Turning to `O=c1c(O)c(-c2ccc(OS(=O)(=O)O)c(O)c2)oc2cc(O)cc(O)c12` [Quercetin 4-O-sulfate], the LC retention time is 14.9 min in [2]; 19.5 min in data set [3]; 10.6 min in data set [4]; 47.6 min in data set [5]; 12.9 min in [7]; 20.7 min in data set [8]. For the same molecule, the LC retention time is 9.3 min in [11], 2.93 min in [12] and 2.82 min in [15].
Take `COc1cc(C=O)ccc1O` [Vanillin]: the LC retention time in data set [1] was 4.06 min; in data set [2], 6.9 min; in data set [3], 10.1 min; in data set [4] it was 9.32 min; in data set [5], 21.1 min; in [7], 8.04 min. In addition, the LC retention time in data set [9] was 3.51 min; in data set [10], 7.83 min; in data set [11], 5.38 min; in data set [12] it was 2.44 min; in data set [13], 2.03 min; in data set [15] it was 2.71 min. The LC retention time is 3.46 min in data set [20] and 54.7 min in data set [21].
